Where “and” joins values, the source holds several entries; their conditions need not be identical. Equal values may be shown once.
Tested on: bovine embryos co-cultured with granulosa cells
Assay: Example 4: Hb (1 or 10 μg/ml) added to mBECM-C, embryos co-cultured with granulosa cells
Type: cell-based
Protocol: mBECM containing 10 μM β-mercaptoethanol was used to culture embryos, as described in J. Lim et al., “Roles of growth factors in the development of bovine embryos fertilized in vitro and cultured singly in a defined medium,” Reprod. Fertil. Dev., 8, 1199-1205 (1996). To culture individual 8-cell embryos we used mBECM supplemented with 1 ng/ml platelet derived growth factor type AB (PDGF; Upstate Biotechnology Inc., Lake Placid, N.Y.), 1 ng/ml transforming growth factor-β (TGF; R & D System, Minneapolis, Minn.), 50 ng/ml arachidonic acid (AA; Cayman Chemical Co., Ann Arbor, Mich.), 100 μM glutathione (GSH; Sigma Co.) and 1 mg/ml polyvinyl alcohol (PVA) (mBECM-S). mBECM to which 10% (v/v) FBS was added (mBECM-C) was used for co-culturing inseminated zygotes with CGs and for producing 8-cell embryos. Osmolarity of the medium was maintained within the range of 265-290 mOsm.
The bovine cumulus-oocyte complexes (COCs) used were collected in Madison, Wis. (BOMED, Inc.), and were shipped in 2-ml of maturation medium in a battery powered incubator via overnight express mail service. Oocytes matured during transit and arrived within 24 h after exposure to maturation medium, pre-equilibrated at 39° C. in 5% CO2 in air. At 22-24 h after exposure to the medium, the COCs were inseminated in vitro as described in J. Lim et al., “Intracytoplasmic glutathione concentration and the role of β-mercaptoethanol in preimplantation development of bovine embryos,” Theriogenology, 46, 429-439 (1996). At 18 h post-insemination, COCs were cultured in groups (30-35 embryos) in a 4-well multidish (Nunc, Roskilde, Denmark) containing 0.8-ml of mBECM-C. Embryos were dislodged from CGs at 36-48 h post-insemination.
In Example 1, embryos (83-85 per group) collected 18 h post-insemination were cultured in mBECM-C, to which 0, 0.008, or 0.04 mM SNP was added at 18 or 60 h post-insemination. In Example 2, 8-cell embryos (80 per group) were produced in a co-culture system containing CGs and mBECM-C, and then beginning at 60 h post-insemination were cultured singly in a defined culture medium (mBECM-S), to which 0, 0.0016, 0.008, or 0.04 mM of SNP (S-0501, Sigma Co.) was added. In Example 3 embryos, either uncleaved (n=99) or developed to the 2-cell stage (90), were collected 48 h post-insemination; and cleaved embryos, either developed to the morula stage (69) or degenerate (63) were collected 144 h post-insemination. NO metabolites were then measured in the embryos. In Example 4, three groups of 95 zygotes each were co-cultured with CGs in mBECM-C, to which 0, 1, or 10 μg/ml Hb (bovine, mainly methemoglobin, H-2500, Sigma Co.) was added. […] Inseminated oocytes (104 per group) were co-cultured with CGs in MBECM-C up to 192 h post-insemination; and Hb (1 μg/ml) was added to the medium at 18, 60, or 144 h post-insemination. In Example 6, inseminated oocytes (93 per group) were cultured in the presence or absence of CGs in mBECM-C to which either 0 or 1 μg/ml Hb was added. In Example 7, 8-cell embryos (100 per group), obtained after culture in mBECM-C supplemented with Hb (1 μg/ml), were cultured singly in mBECM-S, with or without Hb.
Oocytes or 8-cell embryos were randomly and equally allocated to each treatment group. In Examples 1, 2, and 4-7, oocytes or embryos that had developed to the 2-cell, 8-cell, >8-cell, 16-cell morula, and blastocyst stages were individually scored ‘1’ (developed) at 48, 60, 96, 120, 144 and 192 h post-insemination, respectively. […] Sums of the scores in each stage of development were evaluated by analysis of variance (ANOVA) using the general linear model (PROC-GLM) in the SAS program software. In Example 3, concentrations of NO metabolites in embryos were subjected to ANOVA. […] Differences were regarded as statistically significant where P values were less than 0.05.

Question: For hemoglobin [Hb], which “Percent of Embryos Developed to 2-cell” value (Hb 1 μg/ml in mBECM-C) is on record?
Answer: Its value is 81%.

Question: And the “Percent of Embryos Developed to 16-cell” value (Hb 1 μg/ml in mBECM-C)?
Answer: Its value is 52%.

Question: And the “Percent of Embryos Developed to >8-cell” value (Hb 1 μg/ml in mBECM-C)?
Answer: The value was 60%.

Question: And the “Percent of Embryos Developed to Blastocyst” value (Hb 1 μg/ml in mBECM-C)?
Answer: The value was 34% and 34^b %.

Question: And the “Percent of Embryos Developed to Morula” value (Hb 1 μg/ml in mBECM-C)?
Answer: Its value is 46%.

Question: And the “Percent of Embryos Developed to 2-cell” value (Hb 10 μg/ml in mBECM-C)?
Answer: The value was 78%.

Question: What about the “Percent of Embryos Developed to 16-cell” value (Hb 10 μg/ml in mBECM-C) of the same substance?
Answer: The value was 43%.

Question: And the “Percent of Embryos Developed to >8-cell” value (Hb 10 μg/ml in mBECM-C)?
Answer: Its value is 53%.

Question: And the “Percent of Embryos Developed to Blastocyst” value (Hb 10 μg/ml in mBECM-C)?
Answer: Its value is 27% and 27^ab %.

Question: What about the “Percent of Embryos Developed to Morula” value (Hb 10 μg/ml in mBECM-C) of the same substance?
Answer: The value was 41%.

From patent US6864086B2, “Nitric oxide-scavenging system for culturing oocytes, embryos, or other cells” (Board of Supervisors of Louisiana State University and …, priority 1998, dated 2005)
